Reference: PubChem BioAssay (NCI)
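Protocol summary: plate cells (96-well), add compound at 5 concentrations, incubate 48 h, interpolate endpoints linearly. Abbreviation: GI50, concentration required for 50% inhibition of growth. TGI is the concentration that stops growth completely.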

Columns and labels:
Assay in all cases: NCI-60 cell line screen, 48 h
786-0 renal = system: 786-0 renal
CCRF-CEM leukemia = system: CCRF-CEM leukemia
HOP-62 NSCLC = system: HOP-62 NSCLC
M14 melanoma = system: M14 melanoma
NCI-H460 lung = system: NCI-H460 lung
OVCAR-3 ovarian = system: OVCAR-3 ovarian
OVCAR-5 ovarian = system: OVCAR-5 ovarian
OVCAR-8 ovarian = system: OVCAR-8 ovarian
SK-MEL-28 melanoma = system: SK-MEL-28 melanoma
SK-MEL-5 melanoma = system: SK-MEL-5 melanoma

SMILES: COc1cc2c(cc1F)C(c1ccccc1Cl)=Nc1c(n[nH]c1C)N2
- GI50 (786-0 renal): 1.82 µM
- TGI (786-0 renal): 19.3 µM
- GI50 (CCRF-CEM leukemia): 0.982 µM
- TGI (CCRF-CEM leukemia): > 100 µM
- GI50 (HOP-62 NSCLC): 1.31 µM
- TGI (HOP-62 NSCLC): 19.1 µM
- GI50 (M14 melanoma): 0.911 µM
- TGI (M14 melanoma): 22 µM
- GI50 (NCI-H460 lung): 0.498 µM
- TGI (NCI-H460 lung): 26.5 µM
- GI50 (OVCAR-3 ovarian): 0.597 µM
- TGI (OVCAR-3 ovarian): 21.6 µM
- GI50 (OVCAR-5 ovarian): 6.76 µM
- TGI (OVCAR-5 ovarian): 22.8 µM
- GI50 (OVCAR-8 ovarian): 6.29 µM
- TGI (OVCAR-8 ovarian): 30.4 µM
- GI50 (SK-MEL-28 melanoma): 5.66 µM
- TGI (SK-MEL-28 melanoma): 20.4 µM
- GI50 (SK-MEL-5 melanoma): 0.328 µM
- TGI (SK-MEL-5 melanoma): 6.51 µM

SMILES: Fc1ccc(/C=N/n2c(-c3ccc(F)c(Cl)c3)n[nH]c2=S)cc1
- GI50 (786-0 renal): 19.6 µM
- TGI (786-0 renal): 38.3 µM
- GI50 (CCRF-CEM leukemia): 32.2 µM
- TGI (CCRF-CEM leukemia): 96.6 µM
- GI50 (HOP-62 NSCLC): 16.7 µM
- TGI (HOP-62 NSCLC): 31.4 µM
- GI50 (M14 melanoma): 23.8 µM
- TGI (M14 melanoma): 71.6 µM
- GI50 (NCI-H460 lung): 19.2 µM
- TGI (NCI-H460 lung): 38.3 µM
- GI50 (OVCAR-3 ovarian): 18.3 µM
- TGI (OVCAR-3 ovarian): 37.3 µM
- GI50 (OVCAR-5 ovarian): 21.8 µM
- TGI (OVCAR-5 ovarian): 48.3 µM
- GI50 (OVCAR-8 ovarian): 34.7 µM
- TGI (OVCAR-8 ovarian): > 100 µM
- GI50 (SK-MEL-28 melanoma): 42.1 µM
- TGI (SK-MEL-28 melanoma): > 100 µM
- GI50 (SK-MEL-5 melanoma): 42.9 µM
- TGI (SK-MEL-5 melanoma): > 100 µM

SMILES: O=Nc1c(-c2c(O)[nH]c3ncccc23)[nH]c2ccccc12
- GI50 (786-0 renal): 21.8 µM
- TGI (786-0 renal): > 100 µM
- GI50 (CCRF-CEM leukemia): 5.07 µM
- TGI (CCRF-CEM leukemia): > 100 µM
- GI50 (HOP-62 NSCLC): > 100 µM
- TGI (HOP-62 NSCLC): > 100 µM
- GI50 (M14 melanoma): 10.8 µM
- TGI (M14 melanoma): > 100 µM
- GI50 (NCI-H460 lung): 7.25 µM
- TGI (NCI-H460 lung): > 100 µM
- GI50 (OVCAR-3 ovarian): > 100 µM
- TGI (OVCAR-3 ovarian): > 100 µM
- GI50 (OVCAR-5 ovarian): 96.9 µM
- TGI (OVCAR-5 ovarian): > 100 µM
- GI50 (OVCAR-8 ovarian): > 100 µM
- TGI (OVCAR-8 ovarian): > 100 µM
- GI50 (SK-MEL-28 melanoma): > 57.3 µM
- TGI (SK-MEL-28 melanoma): > 100 µM
- GI50 (SK-MEL-5 melanoma): 15 µM
- TGI (SK-MEL-5 melanoma): > 100 µM

SMILES: Cc1[nH]c(-c2cc(N)ccc2Cl)c2c1C(=O)CCCC2
- GI50 (786-0 renal): 3.24 µM
- TGI (786-0 renal): > 100 µM
- GI50 (CCRF-CEM leukemia): 1.06 µM
- TGI (CCRF-CEM leukemia): > 100 µM
- GI50 (HOP-62 NSCLC): 2.29 µM
- TGI (HOP-62 NSCLC): > 100 µM
- GI50 (M14 melanoma): 4.37 µM
- TGI (M14 melanoma): > 100 µM
- GI50 (NCI-H460 lung): 10.3 µM
- TGI (NCI-H460 lung): > 100 µM
- GI50 (OVCAR-3 ovarian): 3.62 µM
- TGI (OVCAR-3 ovarian): 32.5 µM
- GI50 (OVCAR-5 ovarian): 6.54 µM
- TGI (OVCAR-5 ovarian): > 100 µM
- GI50 (OVCAR-8 ovarian): 3.26 µM
- TGI (OVCAR-8 ovarian): > 100 µM
- GI50 (SK-MEL-28 melanoma): 6.5 µM
- TGI (SK-MEL-28 melanoma): > 100 µM
- GI50 (SK-MEL-5 melanoma): 6.15 µM
- TGI (SK-MEL-5 melanoma): 30.4 µM

SMILES: O=C(Nc1ccccc1OC(=O)c1ccccc1)c1ccccc1
- GI50 (786-0 renal): 15.6 µM
- TGI (786-0 renal): > 100 µM
- GI50 (CCRF-CEM leukemia): 5.87 µM
- TGI (CCRF-CEM leukemia): > 100 µM
- GI50 (HOP-62 NSCLC): 18.8 µM
- TGI (HOP-62 NSCLC): > 100 µM
- GI50 (M14 melanoma): 25.3 µM
- TGI (M14 melanoma): > 100 µM
- GI50 (NCI-H460 lung): 3.26 µM
- TGI (NCI-H460 lung): 15.2 µM
- GI50 (OVCAR-3 ovarian): 3.94 µM
- TGI (OVCAR-3 ovarian): 22.2 µM
- GI50 (OVCAR-5 ovarian): 51.5 µM
- TGI (OVCAR-5 ovarian): > 100 µM
- GI50 (OVCAR-8 ovarian): 6.35 µM
- TGI (OVCAR-8 ovarian): > 100 µM
- GI50 (SK-MEL-28 melanoma): > 100 µM
- TGI (SK-MEL-28 melanoma): > 100 µM
- GI50 (SK-MEL-5 melanoma): 31.5 µM
- TGI (SK-MEL-5 melanoma): > 100 µM

SMILES: N#CCN1C(=O)c2cc([N+](=O)[O-])cc3cc([N+](=O)[O-])cc(c23)C1=O
- TGI (786-0 renal): 42.8 µM
- TGI (CCRF-CEM leukemia): 17.7 µM
- TGI (HOP-62 NSCLC): 41.9 µM
- TGI (M14 melanoma): 48.2 µM
- TGI (NCI-H460 lung): 45.9 µM
- TGI (OVCAR-3 ovarian): 27.1 µM
- TGI (OVCAR-5 ovarian): 36.1 µM
- TGI (OVCAR-8 ovarian): 56.4 µM
- TGI (SK-MEL-28 melanoma): > 52.8 µM
- TGI (SK-MEL-5 melanoma): 29.8 µM

SMILES: COC(=O)c1cc(-c2ccc(OC)c(OC)c2)[nH]c1N/N=C/c1c(Cl)cccc1Cl
- GI50 (786-0 renal): 0.83 µM
- TGI (786-0 renal): 4.32 µM
- GI50 (CCRF-CEM leukemia): 0.406 µM
- TGI (CCRF-CEM leukemia): > 100 µM
- GI50 (HOP-62 NSCLC): 1.17 µM
- TGI (HOP-62 NSCLC): 10.1 µM
- GI50 (M14 melanoma): 0.523 µM
- TGI (M14 melanoma): 5.2 µM
- GI50 (NCI-H460 lung): 0.379 µM
- TGI (NCI-H460 lung): 1.85 µM
- GI50 (OVCAR-3 ovarian): 0.366 µM
- TGI (OVCAR-3 ovarian): 1.87 µM
- GI50 (OVCAR-5 ovarian): 1.91 µM
- TGI (OVCAR-5 ovarian): 7.42 µM
- GI50 (OVCAR-8 ovarian): 1.31 µM
- TGI (OVCAR-8 ovarian): 8.67 µM
- GI50 (SK-MEL-28 melanoma): 0.97 µM
- TGI (SK-MEL-28 melanoma): 71.2 µM
- GI50 (SK-MEL-5 melanoma): 0.387 µM
- TGI (SK-MEL-5 melanoma): 4.56 µM

SMILES: CCCC(S(=O)(=O)c1ccccc1)S(=O)(=O)c1ccccc1
- TGI (786-0 renal): > 100 µM
- TGI (CCRF-CEM leukemia): > 100 µM
- TGI (HOP-62 NSCLC): > 100 µM
- TGI (M14 melanoma): > 100 µM
- TGI (NCI-H460 lung): > 100 µM
- TGI (OVCAR-3 ovarian): > 100 µM
- TGI (OVCAR-5 ovarian): > 100 µM
- TGI (OVCAR-8 ovarian): > 100 µM
- TGI (SK-MEL-28 melanoma): > 100 µM
- TGI (SK-MEL-5 melanoma): > 100 µM

SMILES: CN=C1OC2(c3ccccc3)C3=C(OC(=NC)N2C)C(=O)OC3(c2ccccc2)N1C (stereo not given)
- TGI (786-0 renal): > 100 µM
- TGI (CCRF-CEM leukemia): > 100 µM
- TGI (HOP-62 NSCLC): > 100 µM
- TGI (M14 melanoma): > 100 µM
- TGI (NCI-H460 lung): > 100 µM
- TGI (OVCAR-3 ovarian): > 100 µM
- TGI (OVCAR-5 ovarian): > 100 µM
- TGI (OVCAR-8 ovarian): > 100 µM
- TGI (SK-MEL-28 melanoma): > 100 µM
- TGI (SK-MEL-5 melanoma): > 100 µM

SMILES: Oc1cc(-n2cccn2)c(O)cc1-n1cccn1
- TGI (786-0 renal): 31.3 µM
- TGI (CCRF-CEM leukemia): 19.6 µM
- TGI (HOP-62 NSCLC): > 76.1 µM
- TGI (M14 melanoma): 60.4 µM
- TGI (NCI-H460 lung): > 100 µM
- TGI (OVCAR-3 ovarian): 40 µM
- TGI (OVCAR-5 ovarian): 83.3 µM
- TGI (OVCAR-8 ovarian): 51.9 µM
- TGI (SK-MEL-28 melanoma): 64.9 µM
- TGI (SK-MEL-5 melanoma): 58 µM

SMILES: CNNC(=NS(=O)(=O)c1cc(C#N)c(NNC)cc1S)NNC
- TGI (786-0 renal): > 10 µM
- TGI (CCRF-CEM leukemia): > 10 µM
- TGI (HOP-62 NSCLC): > 10 µM
- TGI (M14 melanoma): > 10 µM
- TGI (NCI-H460 lung): > 10 µM
- TGI (OVCAR-3 ovarian): > 10 µM
- TGI (OVCAR-5 ovarian): > 10 µM
- TGI (OVCAR-8 ovarian): > 10 µM
- TGI (SK-MEL-28 melanoma): > 10 µM
- TGI (SK-MEL-5 melanoma): > 10 µM
